According to patent US20080009418A1, “Selective Inhibitors” (Alchemia LTD., priority 2004, published 2008):

Legend:
[1] = target: T1, Human δ-opioid (DOP) (Homo sapiens, UniProt P41143); test: Radioligand binding, human δ-opioid (DOP) membranes, FlashPlate, [3H]-Bremazocine; settings: compound at 10 μM; for A1: inhibition of radioligand binding: human DOP membranes
T1 construct: purchased Perkin Elmer Biosignal
How it was run: (§1)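 Cloned human receptor membranes were coated onto FlashPlate wells and incubated with radioligand and compound (added from a 0.5 mM DMSO daughter plate) for 1 hour at room temperature in the dark. Scintillation counting gave percent inhibition, with DMSO defining total and reference ligand defining non-specific binding.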

[2] = target: T2, Human κ-Opioid (KOP) (Homo sapiens, UniProt P41145); test: Radioligand binding, human κ-opioid (KOP) membranes, filtration, [3H]-Diprenorphine; settings: compound at 10 μM; for A2: inhibition of radioligand binding: human KOP membranes
T2 construct: purchased Perkin Elmer Biosignal
T2 sequence (P41145 whole entry): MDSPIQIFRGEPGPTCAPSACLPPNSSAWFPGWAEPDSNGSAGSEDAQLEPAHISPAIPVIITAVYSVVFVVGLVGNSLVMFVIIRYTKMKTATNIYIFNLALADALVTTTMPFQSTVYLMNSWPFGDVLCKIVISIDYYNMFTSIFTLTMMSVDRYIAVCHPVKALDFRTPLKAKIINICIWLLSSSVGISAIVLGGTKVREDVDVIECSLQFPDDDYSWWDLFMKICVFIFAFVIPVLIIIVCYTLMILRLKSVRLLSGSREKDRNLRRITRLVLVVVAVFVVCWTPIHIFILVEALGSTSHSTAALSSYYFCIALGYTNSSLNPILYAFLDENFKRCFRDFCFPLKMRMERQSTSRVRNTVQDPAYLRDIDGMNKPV
How it was run: (§2)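 Filtration binding on cloned human receptor membranes (1 Unit/well), [125I]-Substance P for NK1 and [3H]-Diprenorphine for KOP, 1 h at room temperature. Filters PEI-presoaked, washed with cold 50 mM Tris-HCl pH 7.4, counted by scintillation; percent inhibition calculated, reference ligand defining non-specific binding.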

[3] = target: T3, Human Melanocortin (MC3) (Homo sapiens, UniProt P41968); test: Radioligand binding, human melanocortin MC3 membranes, FlashPlate, [125I]-NDP-αMSH; settings: compound at 10 μM; for A3: inhibition of radioligand binding: human MC3 membranes
T3 construct: purchased Perkin Elmer Biosignal
T3 sequence (P41968 whole entry): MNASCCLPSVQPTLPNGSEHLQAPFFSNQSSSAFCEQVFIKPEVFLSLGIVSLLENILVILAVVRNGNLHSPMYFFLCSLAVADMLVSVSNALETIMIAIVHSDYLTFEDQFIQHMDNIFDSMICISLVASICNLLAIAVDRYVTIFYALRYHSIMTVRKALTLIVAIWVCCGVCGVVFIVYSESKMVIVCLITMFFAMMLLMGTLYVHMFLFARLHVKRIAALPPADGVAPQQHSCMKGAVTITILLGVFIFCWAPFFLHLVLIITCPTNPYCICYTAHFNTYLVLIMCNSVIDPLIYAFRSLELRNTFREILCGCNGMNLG
How it was run: as §1

[4] = target: T4, Human Melanocortin (MC4) (Homo sapiens, UniProt P32245); test: Radioligand binding, human melanocortin MC4 membranes, FlashPlate, [125I]-NDP-αMSH; settings: compound at 10 μM; for A4: inhibition of radioligand binding: human MC4 membranes
T4 construct: purchased Perkin Elmer Biosignal
T4 sequence (P32245 whole entry): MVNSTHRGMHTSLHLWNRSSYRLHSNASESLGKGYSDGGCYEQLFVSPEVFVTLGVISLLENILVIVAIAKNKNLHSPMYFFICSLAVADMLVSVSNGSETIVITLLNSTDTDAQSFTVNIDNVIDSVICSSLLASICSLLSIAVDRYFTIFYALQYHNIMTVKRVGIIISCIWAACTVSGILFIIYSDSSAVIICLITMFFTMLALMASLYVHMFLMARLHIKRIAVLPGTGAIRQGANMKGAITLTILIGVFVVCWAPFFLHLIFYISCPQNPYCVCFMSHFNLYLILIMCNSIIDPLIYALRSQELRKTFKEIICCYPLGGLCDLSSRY
How it was run: as §1

[5] = target: T5, Human melanocortin (MC5) (Homo sapiens, UniProt P33032); test: Radioligand binding, human melanocortin MC5 membranes, FlashPlate, [125I]-NDP-αMSH; settings: compound at 10 μM; for A5: inhibition of radioligand binding: human MC5 membranes
T5 construct: purchased Perkin Elmer Biosignal
T5 sequence (P33032 whole entry): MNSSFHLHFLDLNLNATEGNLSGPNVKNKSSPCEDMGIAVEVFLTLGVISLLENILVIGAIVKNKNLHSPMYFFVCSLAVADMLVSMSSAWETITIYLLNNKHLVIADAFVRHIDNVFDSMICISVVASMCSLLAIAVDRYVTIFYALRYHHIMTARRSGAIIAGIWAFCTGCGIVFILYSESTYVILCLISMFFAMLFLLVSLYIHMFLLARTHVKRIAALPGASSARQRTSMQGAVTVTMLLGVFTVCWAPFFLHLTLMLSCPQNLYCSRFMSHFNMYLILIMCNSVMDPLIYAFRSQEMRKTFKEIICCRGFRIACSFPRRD
How it was run: as §1

[6] = target: T6, Human melanin-concentrating hormone (MCH1) (Homo sapiens, UniProt Q99705); test: Radioligand binding, human melanin-concentrating hormone MCH1 membranes, FlashPlate, [125I]-S36057; settings: compound at 10 μM; for A6: inhibition of radioligand binding: [125I]-S36057, human MCH1 membranes
T6 construct: purchased Perkin Elmer Biosignal
T6 sequence (Q99705 whole entry): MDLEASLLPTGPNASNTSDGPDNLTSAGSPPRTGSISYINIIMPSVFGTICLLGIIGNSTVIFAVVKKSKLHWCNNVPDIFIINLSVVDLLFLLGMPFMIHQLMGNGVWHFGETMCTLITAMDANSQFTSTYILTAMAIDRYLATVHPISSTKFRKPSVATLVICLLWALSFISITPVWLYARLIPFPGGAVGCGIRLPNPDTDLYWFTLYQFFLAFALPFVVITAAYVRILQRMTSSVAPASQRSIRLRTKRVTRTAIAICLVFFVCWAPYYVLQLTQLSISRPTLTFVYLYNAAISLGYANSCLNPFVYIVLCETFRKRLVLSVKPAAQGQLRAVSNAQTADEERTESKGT
How it was run: as §1

[7] = target: T7, Human μ-opioid (MOP) (Homo sapiens, UniProt P35372); test: Radioligand binding, human μ-opioid (MOP) membranes, FlashPlate, [3H]-Naloxone; settings: compound at 10 μM; for A7: inhibition of radioligand binding: human MOP membranes
T7 construct: purchased Perkin Elmer Biosignal
T7 sequence (P35372 whole entry): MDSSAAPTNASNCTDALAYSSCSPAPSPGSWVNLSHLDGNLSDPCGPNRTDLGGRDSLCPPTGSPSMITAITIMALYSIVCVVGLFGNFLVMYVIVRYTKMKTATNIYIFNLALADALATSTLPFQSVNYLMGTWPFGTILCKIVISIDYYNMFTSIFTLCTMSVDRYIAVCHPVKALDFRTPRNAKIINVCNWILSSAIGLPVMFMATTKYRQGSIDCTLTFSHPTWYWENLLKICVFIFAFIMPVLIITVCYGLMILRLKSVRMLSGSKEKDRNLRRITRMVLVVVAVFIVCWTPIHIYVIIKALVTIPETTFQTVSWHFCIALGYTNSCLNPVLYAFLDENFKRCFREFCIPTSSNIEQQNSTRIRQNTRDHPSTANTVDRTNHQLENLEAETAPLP
How it was run: as §1

[8] = target: T8, Human neurokinin (NK1) (Homo sapiens, UniProt P25103); test: Radioligand binding, human neurokinin NK1 membranes, filtration, [125I]-Substance P; settings: compound at 10 μM; for A8: inhibition of radioligand binding: human NK1 membranes
T8 construct: purchased Perkin Elmer Biosignal
T8 sequence (P25103 whole entry): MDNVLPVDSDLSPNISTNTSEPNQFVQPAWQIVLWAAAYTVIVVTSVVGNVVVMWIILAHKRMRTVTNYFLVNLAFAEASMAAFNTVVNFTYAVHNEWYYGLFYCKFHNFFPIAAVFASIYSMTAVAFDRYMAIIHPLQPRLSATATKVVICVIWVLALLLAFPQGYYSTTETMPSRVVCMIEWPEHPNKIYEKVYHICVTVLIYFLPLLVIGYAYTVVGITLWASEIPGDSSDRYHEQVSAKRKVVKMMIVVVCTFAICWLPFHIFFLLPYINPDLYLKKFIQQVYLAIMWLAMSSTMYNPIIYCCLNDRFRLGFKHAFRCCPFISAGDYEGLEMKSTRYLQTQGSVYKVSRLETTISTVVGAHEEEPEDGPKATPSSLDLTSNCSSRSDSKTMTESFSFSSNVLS
How it was run: as §2

[9] = target: T9, Human neuropeptide Y (NPY-Y1) (Homo sapiens, UniProt P25929); test: Radioligand binding, human neuropeptide Y NPY-Y1 membranes, FlashPlate, [125I]-PYY; settings: compound at 10 μM
T9 construct: purchased Perkin Elmer Biosignal
T9 sequence (P25929 1-384): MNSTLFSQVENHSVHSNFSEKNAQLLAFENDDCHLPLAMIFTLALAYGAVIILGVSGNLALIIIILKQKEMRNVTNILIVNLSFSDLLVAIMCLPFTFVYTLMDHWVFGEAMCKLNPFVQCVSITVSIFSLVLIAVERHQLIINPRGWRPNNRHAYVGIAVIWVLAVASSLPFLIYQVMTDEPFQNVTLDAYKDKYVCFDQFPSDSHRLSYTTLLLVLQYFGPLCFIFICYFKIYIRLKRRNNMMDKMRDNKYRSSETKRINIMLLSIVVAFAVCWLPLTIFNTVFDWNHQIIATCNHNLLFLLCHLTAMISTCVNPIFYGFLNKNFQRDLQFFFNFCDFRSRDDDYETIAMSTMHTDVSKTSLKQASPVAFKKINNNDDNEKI
How it was run: as §1

[10] = target: T10, Human opioid (ORL1) (Homo sapiens, UniProt P41146); test: Radioligand binding, human opioid ORL1 membranes, FlashPlate, [125I]-Nociceptin; settings: compound at 10 μM
T10 construct: purchased Perkin Elmer Biosignal
T10 sequence (P41146 whole entry): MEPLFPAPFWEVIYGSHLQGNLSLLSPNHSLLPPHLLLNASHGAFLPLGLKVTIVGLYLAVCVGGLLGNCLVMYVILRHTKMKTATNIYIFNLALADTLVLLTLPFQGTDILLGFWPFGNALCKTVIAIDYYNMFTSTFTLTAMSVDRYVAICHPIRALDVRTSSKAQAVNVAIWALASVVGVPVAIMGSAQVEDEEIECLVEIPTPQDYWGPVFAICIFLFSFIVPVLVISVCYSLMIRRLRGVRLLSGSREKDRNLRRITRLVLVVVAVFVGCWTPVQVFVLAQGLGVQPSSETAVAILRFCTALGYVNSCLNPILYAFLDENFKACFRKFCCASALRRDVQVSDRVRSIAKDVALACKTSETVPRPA
How it was run: as §1

[11] = target: T11, Mouse urotensin (mUR2) (Mus musculus, UniProt Q8VIH9); test: Radioligand binding, mouse urotensin mUR2 membranes, FlashPlate, [125I]-Urotensin II; settings: compound at 10 μM; for A11: inhibition of radioligand binding: mouse mUR2 membranes
T11 construct: purchased Perkin Elmer Biosignal
T11 sequence (Q8VIH9 1-385): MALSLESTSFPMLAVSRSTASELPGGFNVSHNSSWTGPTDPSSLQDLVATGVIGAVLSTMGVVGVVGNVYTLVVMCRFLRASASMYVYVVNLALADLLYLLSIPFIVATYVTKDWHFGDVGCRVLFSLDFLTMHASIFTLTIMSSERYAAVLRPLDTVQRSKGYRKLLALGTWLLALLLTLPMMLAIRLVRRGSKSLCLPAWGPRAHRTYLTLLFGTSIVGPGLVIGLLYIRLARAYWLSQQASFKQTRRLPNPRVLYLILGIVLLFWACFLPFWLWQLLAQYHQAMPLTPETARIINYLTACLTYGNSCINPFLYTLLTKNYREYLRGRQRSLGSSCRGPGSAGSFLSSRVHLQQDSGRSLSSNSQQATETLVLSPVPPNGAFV
How it was run: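 Cloned mouse urotensin (mUR2) receptor membranes from Perkin Elmer Biosignal were immobilized in FlashPlate microplates using a proprietary coating. Each well got 19.5 μl buffer, then 0.5 μl of DMSO, reference ligand, or compound. Adding 5 μl of [125I]-Urotensin II, diluted to 5× final concentration in binding buffer, started binding. Plates were sealed with TopSeal-A and incubated 1 hour at room temperature in the dark. Wells were counted for 30 seconds each on a TopCount after a 60-second delay, and percentage inhibition was calculated.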

[12] = [125I]-PYY, human NPY-Y1 membranes
[13] = [125I]-Nociceptin, human ORL1 membranes

T1 sequence (P41143 whole entry): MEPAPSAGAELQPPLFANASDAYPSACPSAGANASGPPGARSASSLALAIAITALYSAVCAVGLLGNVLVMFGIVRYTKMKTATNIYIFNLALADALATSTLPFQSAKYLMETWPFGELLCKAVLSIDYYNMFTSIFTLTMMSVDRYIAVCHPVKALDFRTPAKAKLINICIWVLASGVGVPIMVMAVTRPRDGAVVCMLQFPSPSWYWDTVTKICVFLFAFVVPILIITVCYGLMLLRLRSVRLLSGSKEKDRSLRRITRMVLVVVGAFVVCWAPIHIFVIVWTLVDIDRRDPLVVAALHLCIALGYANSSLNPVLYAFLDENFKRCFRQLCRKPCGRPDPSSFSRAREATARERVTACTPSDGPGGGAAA

Compound	A1: inhibition of radioligand binding ([1]; [3H]-Bremazocine)	A2: inhibition of radioligand binding ([2]; [3H]-Diprenorphine)	A3: inhibition of radioligand binding ([3]; [125I]-NDP-αMSH)	A4: inhibition of radioligand binding ([4]; [125I]-NDP-αMSH)	A5: inhibition of radioligand binding ([5]; [125I]-NDP-αMSH)	A6: inhibition of radioligand binding [6]	A7: inhibition of radioligand binding ([7]; [3H]-Naloxone)	A8: inhibition of radioligand binding ([8]; [125I]-Substance P)	A9: inhibition of radioligand binding [9, 12]	A10: inhibition of radioligand binding [10, 13]	A11: inhibition of radioligand binding ([11]; [125I]-Urotensin II)	also measured
N=C(N)NCC(=O)NC1C(OCc2ccc(-c3ccccc3)cc2)OC(COCc2ccccc2)C(O)C1OCc1ccc2ccccc2c1 (centres unmarked) [compound 403]	− (“−” indicates less than 50% inhibition at 10 μM)	− (“−” indicates less than 50% inhibition at 10 μM)	+ (“+” indicates greater than 50% inhibition at 10 μM)	+ (“+” indicates greater than 50% inhibition at 10 μM)	+ (“+” indicates greater than 50% inhibition at 10 μM)	+ (“+” indicates greater than 50% inhibition at 10 μM)	− (“−” indicates less than 50% inhibition at 10 μM)	+ (“+” indicates greater than 50% inhibition at 10 μM)	− (“−” indicates less than 50% inhibition at 10 μM)	+ (“+” indicates greater than 50% inhibition at 10 μM)	− (“−” indicates less than 50% inhibition at 10 μM)	–
NCCC(=O)NC1C(OCc2ccc3ccccc3c2)OC(COCc2ccccc2)C(O)C1OCc1ccc2ccccc2c1 (centres unmarked) [compound 385]	− (“−” indicates less than 50% inhibition at 10 μM)	− (“−” indicates less than 50% inhibition at 10 μM)	+ (“+” indicates greater than 50% inhibition at 10 μM)	+ (“+” indicates greater than 50% inhibition at 10 μM)	+ (“+” indicates greater than 50% inhibition at 10 μM)	+ (“+” indicates greater than 50% inhibition at 10 μM)	− (“−” indicates less than 50% inhibition at 10 μM)	+ (“+” indicates greater than 50% inhibition at 10 μM)	− (“−” indicates less than 50% inhibition at 10 μM)	− (“−” indicates less than 50% inhibition at 10 μM)	− (“−” indicates less than 50% inhibition at 10 μM)	–
CSC1OC(COCc2ccc(-c3ccccc3)cc2)C(O)C(OCc2ccc3ccccc3c2)C1NC(=O)CCCN (centres unmarked) [compound 315]	–	–	–	–	–	–	–	–	–	–	–	A1: inhibition of radioligand binding, human δ-opioid (DOP) ([1]; [3H]-Bremazocine): − (“−” indicates less than 50% inhibition at 10 μM); A2: inhibition of radioligand binding, human κ-opioid (KOP) ([2]; [3H]-Diprenorphine): − (“−” indicates less than 50% inhibition at 10 μM); A3: inhibition of radioligand binding, human melanocortin (MC3) ([3]; [125I]-NDP-αMSH): − (“−” indicates less than 50% inhibition at 10 μM); A4: inhibition of radioligand binding, human melanocortin (MC4) ([4]; [125I]-NDP-αMSH): − (“−” indicates less than 50% inhibition at 10 μM); A5: inhibition of radioligand binding, human melanocortin (MC5) ([5]; [125I]-NDP-αMSH): − (“−” indicates less than 50% inhibition at 10 μM); A6: inhibition of radioligand binding, human melanin-concentrating hormone (MCH1) ([6]; [125I]-S36057): − (“−” indicates less than 50% inhibition at 10 μM); A7: inhibition of radioligand binding, human μ-opioid (MOP) ([7]; [3H]-Naloxone): − (“−” indicates less than 50% inhibition at 10 μM); A8: inhibition of radioligand binding, human neurokinin (NK1) ([8]; [125I]-Substance P): + (“+” indicates greater than 50% inhibition at 10 μM); A9: inhibition of radioligand binding, human neuropeptide Y (NPY-Y1) ([9]; [125I]-PYY): − (“−” indicates less than 50% inhibition at 10 μM); A10: inhibition of radioligand binding, human opioid (ORL1) ([10]; [125I]-Nociceptin): − (“−” indicates less than 50% inhibition at 10 μM); A11: inhibition of radioligand binding, mouse urotensin (mUR2) ([11]; [125I]-Urotensin II): − (“−” indicates less than 50% inhibition at 10 μM)
CO[C@H]1[C@H](O)[C@@H](COCc2ccc(-c3ccccc3)cc2)OC(OCc2ccccc2)[C@@H]1NC(=O)CCNC(=N)N (some centres unmarked) [compound 83]	–	–	–	–	–	–	–	–	–	–	–	A1 radioligand binding inhibition ([1]; human δ-opioid (DOP) membranes): − (“−” indicates less than 50% inhibition at 10 μM); A2 radioligand binding inhibition ([2]; human κ-opioid (KOP) membranes): − (“−” indicates less than 50% inhibition at 10 μM); A3 radioligand binding inhibition ([3]; human melanocortin MC3 membranes): − (“−” indicates less than 50% inhibition at 10 μM); A4 radioligand binding inhibition ([4]; human melanocortin MC4 membranes): − (“−” indicates less than 50% inhibition at 10 μM); A5 radioligand binding inhibition ([5]; human melanocortin MC5 membranes): + (“+” indicates greater than 50% inhibition at 10 μM); A6 radioligand binding inhibition ([6]; human MCH1 membranes): − (“−” indicates less than 50% inhibition at 10 μM); A7 radioligand binding inhibition ([7]; human μ-opioid (MOP) membranes): + (“+” indicates greater than 50% inhibition at 10 μM); A8 radioligand binding inhibition ([8]; human neurokinin NK1 membranes): + (“+” indicates greater than 50% inhibition at 10 μM); A9 radioligand binding inhibition ([9]; human NPY-Y1 membranes): − (“−” indicates less than 50% inhibition at 10 μM); A10 radioligand binding inhibition ([10]; human ORL1 membranes): − (“−” indicates less than 50% inhibition at 10 μM); A11 radioligand binding inhibition ([11]; mouse urotensin mUR2 membranes): − (“−” indicates less than 50% inhibition at 10 μM)
